A short description of series [1]: Reactivity of scavenger with γ-KAs relative to lysine. Particulars: more reactive than lysine. An excerpt:
Other embodiments of the present invention include the use of analogs of pyridoxamine that are less polar but retain the critical molecular structure of this molecule responsible for intercepting γ-KAs^49. One example is 2-hydroxy-benzylamine (salicylamine, SA) which is 980 times more reactive than lysine with γ-KAs.
It is important to emphasize that the use of salicylamine is one example of the present invention. Other embodiments include compounds that intercept γ-KA scavengers on various biological processes, their analogs and salt forms thereof. Different non-limiting examples of compounds of the present invention are listed below, which intercept γ-KAs with varying degrees of hydrophilicity. Additionally, to solubilize the more hydrophobic compounds, they have been converted them to an acetate salt. These react with γ-KAs in vitro at a rate more than 2 orders of magnitude greater than the potency of the reaction of γ-KAs with the ε-amine of lysine^49. […] Included are analogs, salts, and pharmaceutical compositions comprising compounds that intercept γ-KA scavengers on various biological processes.

In series [2] the test system is COX enzymes. As to conditions: cited from earlier work.
In series [3] the test system is carrageenin-induced paw edema. The experiment in a line: Carrageenin-induced paw edema rat model. As to conditions: for mean reduction in edema: 3 hrs after injection of carrageenin, FIG. 7. Format: in vivo. An excerpt: As indicated above, one embodiment of the present invention is the use of salicylamine to treat inflammation. […] The carrageenin-induced paw edema rat model has been probably the most utilized animal model to screen for potency of NSAIDs and other antiinflammatory compounds to inhibit inflammation for decades. For example, see Proc Soc Exp Biol Med 111:544 in 1962 by Winter C A et. al., entitled: “Carrageenin-induced edema of the hind paw of the rat as an assay for antiinflammatory drugs”. Importantly, it has been shown that this model is one of the most robust predictors of clinical potency of NSAIDs^54.
Our initial experiments tested the ability of a single dose of salicylamine (200 mg/kg), administered intraperitoneally, to reduce paw edema at various time points. Carrageenan (100 μl of a 1% solution in saline) was injected into the hind right footpad. Footpad volume was measured in a water displacement plethysmometer before injection of carrageenin and at 2 hr, 3 hr, and 4 hr post-carrageenin. Edema was calculated as footpad volume change (ml) as a percentage of original paw volume for each individual animal.
The efficacy an analog of salicylamine, 5-methyl-salicylamine, to inhibit carrageenin-induced paw edema was accessed at 3 hrs after injection of carrageenin at two doses, 200 and 100 mg/kg ip (FIG. 7).
(In general: In the carrageenan paw model, swelling and tenderness develop within hours.)

In series [4] the test system is cells exposed to a lethal concentration of the oxidant t-butylhydroperoxide. The experiment in a line: Protection of cells against a lethal concentration of t-butylhydroperoxide (FIG. 5). Type of series: cell-based. An excerpt: One example is shown in FIG. 5, where cells are exposed to a lethal concentration of the oxidant t-butylhydroperoxide. […] Accordingly, we suspected that the γ-KAs generated by the COX pathways would likely be very pro-inflammatory, which might explain the underlying mechanism by which NSAID's exert some their anti-inflammatory effects.

The test system of series [5] is hAPO4 mice. Put plainly: Cognitive deficits in hAPO4 mouse model of human Alzheimer's disease. Format: in vivo. The source says: The present inventors have shown that levels of γ-KA adducts are increased in disease affected areas of whole brain tissue from patients with Alzheimer's disease. […] The present inventors accessed the ability of the γ-KA scavenger salicylamine to prevent the development of cognitive abnormalities in an animal model of human Alzheimer's disease, hAPO4 mice.

Series [6] relates to NF-κB. The experiment in a line: LPS-induced NF-κB expression in NF-κB reporter macrophages (luciferase reporter assay). Format: cell-based. Particulars: varying concentrations, FIG. 9. The source says: The effect of γ-KAs and salicylamine on induction of NF-κB was explored using a novel luciferase reporter assay to quantitatively monitor the induction of expression of NF-κB both in vitro in cells and in vivo^55; 56. NF-κB is required for maximal induction of many cytokines which are thought to be important in the generation of the acute inflammatory responses^57. Accordingly, the downstream effects of an agent that suppresses the induction of NF-κB would be a reduction in the level of inflammation. The first question we asked was does exposure of cells to γ-KAs induce the expression of NF-κB using the luciferase reporter assay mentioned above. […] The abbreviation RLU in this figure stands for Relative Light Units that were measured by luciferase assay.
Another embodiment of the present invention is treatment with varying concentrations of salicylamine (SA) would suppress lipopolysaccharide (LPS) induced expression of NF-κB in NF-κB reporter macrophages.

The subject of series [7] is neutrophil cell counts in lung bronchoalveolar lavage fluid. The experiment in a line: Neutrophil cell counts in lung bronchoalveolar lavage fluid of LPS-injected mice. Type of series: in vivo. Particulars: ip at 1 hr, 3 hrs, 5 hrs after LPS; determined 8 hrs after LPS; FIG. 11. How it is done: An in vivo experiment was performed to explore whether treatment with salicylamine would down regulate the activity of NF-kB in animals injected with LPS. The animals we used were mice with a luciferase NF-kB reporter gene developed by Dr. Timothy Blackwell mentioned previously. LPS was injected into mice and salicylamine was injected intraperitoneally at 1 hr, 3 hrs, and 5 hrs after the LPS injection. Lung NF-kB luciferase assay and neutrophil cell counts in lung bronchoalveolar lavage fluid (BAL) were then determined 8 hrs after the LPS injection. There was a reduction in both (a) activity of NF-kB (FIG. 10) (b) and neutrophil cell counts (FIG. 11), both of which are indicative of a pronounced anti-inflammatory effect of salicylamine treatment in these animals.

Series [8] is described as follows: Pharmacokinetics of salicylamine. Type of series: in vivo.

With `NCc1ccccc1O` [salicylamine, 2-hydroxy-benzylamine], the “reactivity with γ-KAs relative to lysine” value in series [1] is given as 980 times. The “inhibition of COX (cyclooxygenase) enzymes” value in series [2] is on record as “None of the compound listed below, including salicylamine, inhibit cyclooxygenase enzymes”. Besides, the “inhibition of carrageenin-induced paw edema” value in series [3] (single dose 200 mg/kg intraperitoneally, 2 hr, 3 hr, 4 hr post-carrageenin, FIG. 6) was “marked inhibition”. Besides, the “persistence of decrease in paw edema after injection of carrageenin” value in series [3] (single intraperitoneal injection, 200 mg/kg) was “at least 4 hrs”. In addition, in series [4], the “protection against cell death” value is on record as “almost completely protected against cell death”. Besides, the “prevention of development of cognitive deficits” value in series [5] is recorded as “almost completely prevented”. In addition, in series [6], the “LPS induced expression of NF-κB” value is given as “concentration dependent stepwise reduction”. Besides, in series [7], the “neutrophil cell counts in BAL” value is listed as “reduction”. In series [8] (in vivo), the “plasma concentrations compared with tissue concentrations” value is given as “lower than tissue concentrations”. The half-life in series [8] (plasma, read-out: half life (t1/2) in plasma) is roughly 1 h.
For the compound `Cc1ccc(O)c(CN)c1` [5-methyl-salicylamine], the “mean reduction in edema” value in series [3] (100 mg/kg ip) stood at 29%; in series [3] (200 mg/kg ip), 60%.
